We go through 23 molecules from patent publication US8247595B2, “Organic sulfur compound and its use for controlling harmful arthropod” (Sumitomo Chemical Company, Limited, priority 2007, dated 2012).

Format in all cases: in vivo
The subject of assay [1] is Haemaphysalis longicornis. The assay can be described thus: Test Example 5: treated filter paper pouch, death rate of ticks. The note with it: 48 h, filter paper treated with 100 mg/m^2, non-blood-sucking nymphal ticks, 10 ticks/group, after 2 days, read-out: death rate of the tick. How it is done:
Five milligrams of any one of the present compounds (19), (23), (24), (27), (28), (29), (32), (33), (35), (38) and (39) was dissolved in 10 mL of acetone. One milliliter of the acetone solution was uniformly applied on one side of a filter paper (TOYO No. 2; 5×10 cm), so that the filter paper was treated with 100 mg/m^2 of the present compound. After drying, the filter paper was folded in two and its edges were clipped to make a pouch. Non-blood-sucking nymphal ticks (Haemaphysalis longicornis, 10 ticks/group) were put into the pouch, and the pouch was sealed with clips. After 2 days, the number of surviving ticks was examined and the death rate was calculated.
As a result, in treatments with the present compounds (19), (23), (24), (27), (28), (29), (32), (33), (35), (38) and (39), the death rate of the tick was 90%.

In a further assay the test system is Musca domestica. The assay can be described thus: Test Example 2: treated filter paper with sucrose bait, death rate of Musca domestica. The settings on record: 500 ppm test solution, 0.7 ml on filter paper, 10 female imagoes, after 24 hours. The procedure:
Preparations of the present compounds (1), (2), (3), (4), (5), (6), (7), (8), (9), (10), (13), (18), (23), (24), (25), (26), (27), (28), (29), (30), (31), (32), (33), (34), (35), (38) and (39) obtained according to Formulation Example 44 were diluted so that the active ingredient concentration was 500 ppm to obtain test solutions.
A filter paper having a diameter of 5.5 cm was spread on the bottom of a polyethylene cup having a diameter of 5.5 cm and 0.7 ml of the test solution was added dropwise onto the filter paper. As a bait 30 mg of sucrose was uniformly placed on the filter paper. Into the polyethylene cup, 10 female imagoes of Musca domestica were released and the cup was sealed with a lid. After 24 hours, the number of surviving Musca domestica was examined and the death rate of the pest was calculated.
As a result, in treatments with the present compounds (1), (2), (3), (4), (5), (6), (7), (8), (9), (10), (13), (18), (23), (24), (25), (26), (27), (28), (29), (30), (31), (32), (33), (34), (35), (38) and (39), the death rate of the pest was 70% or more.

For the next assay, the system named is Culex pipiens pallens. The assay can be described thus: Test Example 4: larvae released into treated water, death rate of Culex pipiens pallens. The settings on record: 24 h, active ingredient concentration 3.5 ppm in water, 20 last-instar larvae, after one day. How it is done: Preparations of the present compounds (1), (2), (3), (4), (5), (6), (7), (13), (14), (15), (16), (18), (22), (23), (24), (25), (26), (27), (28), (29), (30), (31), (32), (33), (34), (35), (36), (38) and (39) obtained according to Formulation Example 44 were diluted so that the active ingredient concentration was 500 ppm to obtain test solutions.
To 100 mL of ion-exchanged water, 0.7 ml of the test solution was added (active ingredient concentration: 3.5 ppm). Into the solution, 20 last-instar larvae of Culex pipiens pallens were released. After one day, the number of surviving Culex pipiens pallens was examined and the death rate of the pest was calculated.
As a result, in treatments with the present compounds (1), (2), (3), (4), (5), (6), (7), (13), (14), (15), (16), (18), (22), (23), (24), (25), (26), (27), (28), (29), (30), (31), (32), (33), (34), (35), (36), (38) and (39), the death rate of the pest was 90% or more.

Another assay concerns Blattalla germanica. The assay can be described thus: Test Example 3: treated filter paper with sucrose bait, death rate of Blattalla germanica. The note with it: 500 ppm test solution, 0.7 ml on filter paper, 2 male imagoes, after 6 days; for pest or weed control at 500 ppm: 144 h. The procedure: Preparations of the present compounds (3), (4), (5), (6), (7), (9), (10), (13), (23), (24), (25), (26), (27), (28), (29), (30), (31), (32), (33), (34), (35), (38) and (39) obtained according to Formulation Example 44 were diluted so that the active ingredient concentration was 500 ppm to obtain test solutions.
A filter paper having a diameter of 5.5 cm was spread on the bottom of a polyethylene cup having a diameter of 5.5 cm and 0.7 ml of the test solution was added dropwise onto the filter paper. As a bait 30 mg of sucrose was uniformly placed on the filter paper. Into the polyethylene cup, 2 male imagoes of Blattalla germanica were released and the cup was sealed with a lid. After 6 days, the number of surviving Blattalla germanica was examined and the death rate of the pest was calculated.
As a result, in treatments with the present compounds (3), (4), (5), (6), (7), (9), (10), (13), (23), (24), (25), (26), (27), (28), (29), (30), (31), (32), (33), (34), (35), (38) and (39), the death rate of the pest was 100%.

On to `C#CCCCCC(C#N)S(=O)(=O)CCC(F)(F)F` (stereo not shown) [present compound (23), 2-(3,3,3-trifluoropropylsulfonyl)-7-octynenitrile], for which the pest or weed control at 100 mg/m2 in assay [1] came out at 90%. The pest or weed control at 500 ppm in the assay with Musca domestica was no less than 70%; in the assay with Blattalla germanica it was 100%. In addition, in the assay on Culex pipiens pallens, the pest or weed control at 3.5 ppm is no less than 90%.

For `C#CCC(CC)CCC(C(=O)OC)S(=O)(=O)CCC(F)(F)F` (stereo not shown) [present compound (30), methyl 5-ethyl-2-(3,3,3-trifluoropropylsulfonyl)-7-octynoate], the pest or weed control at 500 ppm is no less than 70% in the assay with Musca domestica and 100% in the assay on Blattalla germanica. Besides, in the assay on Culex pipiens pallens, the pest or weed control at 3.5 ppm was no less than 90%.

`C#CCCCCCCC(C#N)S(=O)(=O)CCC(F)(F)F` (stereo not shown) [present compound (25), 2-(3,3,3-trifluoropropylsulfonyl)-9-decynenitrile]: the pest or weed control at 500 ppm is no less than 70% with Musca domestica and 100% in the assay with Blattalla germanica. Besides, the pest or weed control at 3.5 ppm in the assay on Culex pipiens pallens is no less than 90%.

In the case of `N#CC(CC=CC(F)(F)F)S(=O)(=O)CCC(F)(F)F` (stereo not shown) [present compound (19), 6,6,6-trifluoro-2-(3,3,3-trifluoropropylsulfonyl)-4-hexenenitrile], the pest or weed control at 100 mg/m2 in assay [1] is 90%.

On to `C#CCCCCC(F)(C(=O)OC)S(=O)(=O)CCC(F)(F)F` (stereo not shown) [present compound (2), methyl 2-fluoro-2-(3,3,3-trifluoropropylsulfonyl)-7-octynoate], for which the pest or weed control at 500 ppm with Musca domestica was no less than 70%. The pest or weed control at 3.5 ppm in the assay on Culex pipiens pallens was no less than 90%.

As to `C#CCCCCCC(F)(C(N)=O)S(=O)(=O)CCC(F)(F)F` (stereo not shown) [present compound (16), 2-fluoro-2-(3,3,3-trifluoropropylsulfonyl)-8-nonynamide], the pest or weed control at 3.5 ppm with Culex pipiens pallens was no less than 90%.

Consider `C#CCCCCC(Cl)(C(N)=O)S(=O)(=O)CCC(F)(F)F` (stereo not shown) [present compound (5), 2-chloro-2-(3,3,3-trifluoropropylsulfonyl)-7-octynamide], for which the pest or weed control at 500 ppm in the assay on Musca domestica was no less than 70%; in the assay on Blattalla germanica, 100%. Besides, the pest or weed control at 3.5 ppm in the assay with Culex pipiens pallens is no less than 90%.

With `C#CCCCCCC(C(=O)OC)S(=O)(=O)CCC(F)(F)F` (stereo not shown) [present compound (14), methyl 2-(3,3,3-trifluoropropylsulfonyl)-8-nonynoate], the pest or weed control at 3.5 ppm with Culex pipiens pallens is no less than 90%.

On to `C#CCCCCC(Cl)(C(=O)OC)S(=O)(=O)CCC(F)(F)F` (stereo not shown) [present compound (4), methyl 2-chloro-2-(3,3,3-trifluoropropylsulfonyl)-7-octyonate], for which, in the assay on Blattalla germanica, the “death rate of the pest” value is reported as 100%.

With `C#CCCC(C(=O)OC)S(=O)(=O)CCC(F)(F)F` (stereo not shown) [present compound (8), methyl 2-(3,3,3-trifluoropropylsulfonyl)-5-hexynoate], the pest or weed control at 500 ppm in the assay on Musca domestica is no less than 70%.

Consider `C#CCCC(F)(C(=O)OC)S(=O)(=O)CCC(F)(F)F` (stereo not shown) [present compound (9), methyl 2-fluoro-2-(3,3,3-trifluoropropylsulfonyl)-5-hexynoate], for which the results for the pest or weed control at 500 ppm in the assay with Musca domestica and in the assay with Blattalla germanica were no less than 70% and 100%, respectively.

As to `C#CCCCCC(C)(C(N)=O)S(=O)(=O)CCC(F)(F)F` (stereo not shown) [present compound (7), 2-methyl-2-(3,3,3-trifluoropropylsulfonyl)-7-octynamide], the figures for the pest or weed control at 500 ppm in the assay with Musca domestica and with Blattalla germanica were no less than 70% and 100%, respectively. In addition, in the assay on Culex pipiens pallens, the pest or weed control at 3.5 ppm was no less than 90%.

Consider `CCC(=CCC(C(=O)OC)S(=O)(=O)CCC(F)(F)F)C(F)(F)F` (stereo not shown) [present compound (36), methyl 5-trifluoromethyl-2-(3,3,3-trifluoropropylsulfonyl)-4-heptenoate], for which the pest or weed control at 3.5 ppm with Culex pipiens pallens is no less than 90%.

Regarding `C#CCCCCC(F)(C(N)=O)S(=O)(=O)CCC(F)(F)F` (stereo not shown) [present compound (3), 2-fluoro-2-(3,3,3-trifluoropropylsulfonyl)-7-octynamide], the pest or weed control at 500 ppm in the assay on Musca domestica was no less than 70%; in the assay on Blattalla germanica it was 100%. Besides, the pest or weed control at 3.5 ppm with Culex pipiens pallens is no less than 90%.

For the molecule `C#CCCCC(F)(C(N)=O)S(=O)(=O)CCC(F)(F)F` (stereo not shown) [present compound (13), 2-fluoro-2-(3,3,3-trifluoropropylsulfonyl)-6-heptynamide], the pest or weed control at 500 ppm is no less than 70% with Musca domestica and 100% with Blattalla germanica. Further, the pest or weed control at 3.5 ppm in the assay on Culex pipiens pallens was no less than 90%.

As to `C#CCCC(F)(C(N)=O)S(=O)(=O)CCC(F)(F)F` (stereo not shown) [present compound (10), 2-fluoro-2-(3,3,3-trifluoropropylsulfonyl)-5-hexynamide], the pest or weed control at 500 ppm in the assay on Musca domestica was no less than 70%; in the assay on Blattalla germanica it was 100%.

On to `CC(C#N)(C/C=C/C(F)(F)F)S(=O)(=O)CCC(F)(F)F` (stereo not shown) [present compound (34), 6,6,6-trifluoro-2-methyl-2-(3,3,3-trifluoropropylsulfonyl)-4-hexenenitrile], for which the pest or weed control at 500 ppm in the assay with Musca domestica is no less than 70%; in the assay with Blattalla germanica, 100%. Further, the pest or weed control at 3.5 ppm in the assay on Culex pipiens pallens was no less than 90%.

On to `C#CCCCCC(C(=O)OC)S(=O)(=O)CCC(F)(F)F` (stereo not shown) [present compound (1), methyl 2-(3,3,3-trifluoropropylsulfonyl)-7-octynoate], for which, in the assay on Musca domestica, the pest or weed control at 500 ppm is no less than 70%. Moreover, the pest or weed control at 3.5 ppm in the assay on Culex pipiens pallens is no less than 90%.

Regarding `C#CCCCCC(Cl)(C#N)S(=O)(=O)CCC(F)(F)F` (stereo not shown) [present compound (26), 2-chloro-2-(3,3,3-trifluoropropylsulfonyl)-7-octynenitrile], the pest or weed control at 500 ppm with Musca domestica was no less than 70%; in the assay with Blattalla germanica, 100%. For the same molecule, the pest or weed control at 3.5 ppm with Culex pipiens pallens is no less than 90%.

Consider `C#CCC(CC)CCC(Cl)(C(=O)OC)S(=O)(=O)CCC(F)(F)F` (stereo not shown) [present compound (31), methyl 2-chloro-5-ethyl-2-(3,3,3-trifluoropropylsulfonyl)-7-octynoate], for which the values for the pest or weed control at 500 ppm in the assay on Musca domestica and in the assay on Blattalla germanica were no less than 70% and 100%, respectively. The pest or weed control at 3.5 ppm in the assay on Culex pipiens pallens was no less than 90%.

In turn, `COC(=O)C(Cl)(CC=CC(F)(F)F)S(=O)(=O)CCC(F)(F)F` (stereo not shown) [present compound (18), methyl 2-chloro-6,6,6-trifluoro-2-(3,3,3-trifluoropropylsulfonyl)-4-hexenoate] came in with a pest or weed control at 500 ppm with Musca domestica of no less than 70%. In addition, the pest or weed control at 3.5 ppm with Culex pipiens pallens is no less than 90%.

`C#CCCCCC(C)(C(=O)OC)S(=O)(=O)CCC(F)(F)F` (stereo not shown) [present compound (6), methyl 2-methyl-2-(3,3,3-trifluoropropylsulfonyl)-7-octyonate]: the “death rate of the pest” value in the assay with Blattalla germanica worked out at 100%.

For `C#CCCCCCC(F)(C(=O)OC)S(=O)(=O)CCC(F)(F)F` (stereo not shown) [present compound (15), methyl 2-fluoro-2-(3,3,3-trifluoropropylsulfonyl)-8-nonynoate], in the assay with Culex pipiens pallens, the pest or weed control at 3.5 ppm was no less than 90%.
